Molecular target: T1, PI3Kα (Homo sapiens, UniProt P42336)
T1 construct: Full length p110 subunits of PI3K α, β and δ, N-terminally labeled with polyHis tag; polyHis (N); made in house; host or cells: Sf9 insect cells (baculovirus)
Assay: In vitro PI3K AlphaScreen assay, PI3Kα
Assay type: biochemical
Conditions: PI(4,5)P2 substrate, 20 minutes at room temperature, read-out: P13Kalpha IC50 um
Procedure: The PI3K AlphaScreen® assay (PerkinElmer, Waltham, Mass.) measures the activity of a panel of four phosphoinositide 3-kinases: PI3Kα, PI3KIβ, PI3Kγ, and PI3Kδ. Each of these enzymes phosphorylates the 3′-hydroxyl group on phosphatidylinositiol (4,5)-bisphosphate (PIP2) to produce phosphatidylinositol (3,4,5)-trisphosphate (PIP3). This phosphorylation activity is measured using a GST-tagged PIP3 binding protein (Echelon Biosciences, Salt Lake City, Utah), an anti-GST-tagged Acceptor bead, and streptavidin-Donor bead. The interaction of biotinylated-PIP3 analog (IP4) and the PIP3 binding protein brings both Acceptor and Donor beads together producing, upon excitation of the Donor beads at 680 nm, a singlet oxygen species leading to the luminescent AlphaScreen® signal. When PIP3 is produced via phosphorylation of PIP2 by a PI3K, PIP3 competes with biotinylated-PIP3 analog (IP4) for binding to the PIP3 binding protein. In the absence of this interaction, proximity of the Donor and Acceptor beads is decreased, producing a loss of luminescent signal which is […] to PI3K activity. […] The enzyme reaction buffer is made using sterile water (Baxter, Deerfield, Ill.) and 50 mM Tris HCl pH 7, 14 mM MgCl2, 2 mM sodium cholate, and 100 mM NaCl. 2 mM DTT is added fresh the day of the experiment. The AlphaScreen® reaction buffer is made using sterile water and 10 mM Tris HCl pH 7.5, 150 mM NaCl, 0.10% Tween 20, and 30 mM EDTA. 1 mM DTT is added fresh the day of the experiment. The source plates for this assay are 384-well Greiner clear polypropylene plates containing test compounds at 5 mM and diluted 1:2 over 22 points. Columns 23 and 24 contain only DMSO as these are designated for positive and negative controls. Source plates are replicated into 384-well Optiplates (PerkinElmer, Waltham, Mass.), 0.5 μL/well, to make assay-ready plates. The different PI3K isoforms are each diluted in enzyme reaction buffer to 2× working solutions. PI3Kα is diluted to 1.6 nM, PI3Kβ is diluted to 0.8 nM, PI3Kγ is diluted to 15 nM, and PI3Kδ is diluted to 1.6 nM. Two different 2× substrate solutions are made in enzyme reaction buffer. In one solution, PI(4,5)P2 (Echelon Biosciences, Salt Lake City, Utah) is diluted to 10 μM and ATP is diluted to 20 μM. This solution is used in the assays testing PI3Kα and PI3Kβ. In a second solution, PI(4,5)P2 is diluted to 10 μM and ATP is diluted to 80 μM. This solution is used in the assays testing PI3Kγ and PI3Kδ. The AlphaScreen® reaction solutions are made using beads from the anti-GST AlphaScreen® kit (PerkinElmer, Waltham, Mass.). Two solutions are made in Alphascreen reaction buffer to 4× working concentrations. In one solution, biotinylated-IP4 (Echelon Biosciences, Salt Lake City, Utah) is diluted to 40 nM and streptavadin-Donor Beads are diluted to 80 μg/mL. In the second solution, PIP3-binding protein (Echelon Biosciences, Salt Lake City, Utah) is diluted to 40 nM and anti-GST-Acceptor Beads are diluted to 80 μg/mL. 10 μL/well of enzyme reaction buffer is added to Column 24 of the assay ready plates in place of enzyme. This is done for plates in the PI3Kα, β, and δ assays. Using a 384-well dispensing Multidrop (Titertek, Huntsville, Ala.), 10 μL/well of 2× enzyme (PI3Kα, β, δ) is added to Columns 1-23 of the appropriate assay ready plates (for PI3Kγ 10 μL is added to Columns 1-24). 10 μL/well of the appropriate substrate solution (the solution with 20 μM ATP for PI3Kα and β assays, and the solution with […] for PI3Kγ and δ assays) is then added to Columns 1-24 of the plates. Plates are then incubated at room temperature for 20 minutes. In the dark, 10 μL/well of the Donor Bead solution is added to Columns 1-24 of the plates to quench the enzyme reaction. The plates are incubated at room temperature for 30 minutes. Still in the dark, 10 μL/well of the Acceptor Bead solution is also added to Columns 1-24 of the plates. The plates are then incubated in the dark for 1.5 hours.

T1 sequence (P42336 whole entry): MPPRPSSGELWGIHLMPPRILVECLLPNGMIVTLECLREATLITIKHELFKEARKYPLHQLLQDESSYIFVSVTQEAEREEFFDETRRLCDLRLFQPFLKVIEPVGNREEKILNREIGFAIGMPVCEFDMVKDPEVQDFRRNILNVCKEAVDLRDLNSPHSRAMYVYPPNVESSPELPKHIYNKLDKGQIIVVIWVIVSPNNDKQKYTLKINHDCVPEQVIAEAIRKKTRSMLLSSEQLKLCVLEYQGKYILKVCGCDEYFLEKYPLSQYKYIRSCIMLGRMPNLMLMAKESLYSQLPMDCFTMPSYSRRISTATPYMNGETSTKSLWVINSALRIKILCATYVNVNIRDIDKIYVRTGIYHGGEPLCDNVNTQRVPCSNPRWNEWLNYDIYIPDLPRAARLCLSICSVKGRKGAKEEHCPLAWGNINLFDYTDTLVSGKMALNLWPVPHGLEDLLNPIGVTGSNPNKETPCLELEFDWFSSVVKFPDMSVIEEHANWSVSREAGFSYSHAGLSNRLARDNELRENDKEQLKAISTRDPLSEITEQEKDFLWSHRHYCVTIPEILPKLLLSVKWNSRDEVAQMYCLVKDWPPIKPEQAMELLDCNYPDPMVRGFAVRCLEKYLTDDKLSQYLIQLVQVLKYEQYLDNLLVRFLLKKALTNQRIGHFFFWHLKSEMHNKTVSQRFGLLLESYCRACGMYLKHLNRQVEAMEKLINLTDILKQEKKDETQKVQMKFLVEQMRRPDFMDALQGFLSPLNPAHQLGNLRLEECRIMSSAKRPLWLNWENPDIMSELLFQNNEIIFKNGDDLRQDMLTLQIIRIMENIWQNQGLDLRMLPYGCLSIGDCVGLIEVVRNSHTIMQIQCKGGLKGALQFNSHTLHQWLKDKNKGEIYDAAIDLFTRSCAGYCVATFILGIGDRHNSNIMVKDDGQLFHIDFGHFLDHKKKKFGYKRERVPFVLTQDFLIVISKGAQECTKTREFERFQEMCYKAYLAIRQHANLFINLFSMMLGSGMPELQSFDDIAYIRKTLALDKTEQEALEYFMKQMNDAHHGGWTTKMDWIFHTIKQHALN
T1 sequence (P27986 whole entry partner): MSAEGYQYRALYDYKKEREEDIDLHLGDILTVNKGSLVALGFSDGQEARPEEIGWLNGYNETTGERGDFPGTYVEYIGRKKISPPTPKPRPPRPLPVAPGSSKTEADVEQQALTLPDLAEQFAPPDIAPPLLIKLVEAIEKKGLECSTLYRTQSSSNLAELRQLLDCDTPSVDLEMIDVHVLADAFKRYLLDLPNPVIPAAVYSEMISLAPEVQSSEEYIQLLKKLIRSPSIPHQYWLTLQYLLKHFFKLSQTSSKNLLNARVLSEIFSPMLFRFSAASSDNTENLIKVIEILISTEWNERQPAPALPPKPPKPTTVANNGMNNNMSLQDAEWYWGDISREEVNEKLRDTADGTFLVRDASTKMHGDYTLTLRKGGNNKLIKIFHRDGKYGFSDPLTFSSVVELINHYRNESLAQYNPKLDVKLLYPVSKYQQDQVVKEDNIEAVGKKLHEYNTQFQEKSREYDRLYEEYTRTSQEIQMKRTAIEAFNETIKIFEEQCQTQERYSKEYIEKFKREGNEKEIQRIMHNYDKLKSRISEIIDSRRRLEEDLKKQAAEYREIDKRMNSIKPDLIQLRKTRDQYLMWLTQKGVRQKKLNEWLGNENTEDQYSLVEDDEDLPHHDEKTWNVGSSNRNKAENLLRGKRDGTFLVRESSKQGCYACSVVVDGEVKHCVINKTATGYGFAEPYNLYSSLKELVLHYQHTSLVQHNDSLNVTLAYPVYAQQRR

Cc1nc(N)nc(-c2c(Nc3cc[nH]n3)nc3ccccn23)n1 [Cpd 1, 3-(4-amino-6-methyl-1,3,5-triazin-2-yl)-N-(1H-pyrazol-3-yl)imidazo[1,2-a]pyridin-2-amine]
IC50: 820 nM

Cc1nc(-c2c(Nc3cccc(O)c3)nc3ccccn23)c2nc[nH]c2n1 [Cpd 2]
IC50: 20 nM

CNc1nc(C)nc(-c2c(Nc3cc[nH]n3)nc3ccccn23)n1 [Cpd 3, 3-(4-methyl-6-(methylamino)-1,3,5-triazin-2-yl)-N-(1H-pyrazol-3-yl)imidazo[1,2-a]pyridin-2-amine]
IC50: 820 nM

Cc1nc(N)cc(-c2c(Nc3cc[nH]n3)nc3cccnn23)n1 [Cpd 7, 3-(6-amino-2-methylpyrimidin-4-yl)-N-(1H-pyrazol-3-yl)imidazo[1,2-b]pyridazin-2-amine]
IC50: 830 nM

Cc1nc(N)cc(-n2nc(C(=O)Nc3cccnc3)cc2Nc2ccn[nH]2)n1 [Cpd 11, 5-(1H-pyrazol-5-ylamino)-1-(6-amino-2-methylpyrimidin-4-yl)-N-(pyridin-3-yl)-1H-pyrazole-3-carboxamide]
IC50: 660 nM

Cc1nc(N)cc(-n2nc(C(=O)N3CCOCC3)cc2Nc2ccn[nH]2)n1 [Cpd 13, (5-(1H-pyrazol-5-ylamino)-1-(6-amino-2-methylpyrimidin-4-yl)-1H-pyrazol-3-yl)(morpholino)methanone]
IC50: 1120 nM

CNC(=O)c1cc(Nc2ccn[nH]2)n(-c2cc(N)nc(C)n2)n1 [Cpd 14, 5-(1H-pyrazol-5-ylamino)-1-(6-amino-2-methylpyrimidin-4-yl)-N-methyl-1H-pyrazole-3-carboxamide]
IC50: 2350 nM

CCOC(=O)c1cc(Nc2cc[nH]n2)n(-c2cc(N)nc(C)n2)n1 [Cpd 15, ethyl 5-(1H-pyrazol-3-ylamino)-1-(6-amino-2-methylpyrimidin-4-yl)-1H-pyrazole-3-carboxylate]
IC50: 340 nM

Cc1nc(N)cc(-n2nc(C(=O)NC3CC3)cc2Nc2cc[nH]n2)n1 [Cpd 16, 5-(1H-pyrazol-5-ylamino)-1-(6-amino-2-methylpyrimidin-4-yl)-N-cyclopropyl-1H-pyrazole-3-carboxamide]
IC50: 2380 nM

Cc1cc(Nc2cc[nH]n2)n(-c2cc(N)nc(C)n2)n1 [Cpd 18, 6-(5-(1H-pyrazol-3-ylamino)-3-methyl-1H-pyrazol-1-yl)-2-methylpyrimidin-4-amine]
IC50: 3230 nM

COc1ccc(Nc2cc(C)nn2-c2cc(N)nc(C)n2)cn1 [Cpd 24, 6-(5-(6-methoxypyridin-3-ylamino)-3-methyl-1H-pyrazol-1-yl)-2-methylpyrimidin-4-amine]
IC50: 790 nM

Cc1nc(Nc2ccccc2F)cc(-c2c(Nc3cc[nH]n3)nc3cccnn23)n1 [Cpd 31, 3-(6-((2-fluorophenyl)amino)-2-methyl-4-pyrimidinyl)-N-1H-pyrazol-3-ylimidazo[1,2-b]pyridazin-2-amine]
IC50: 2760 nM

COc1ccc(Nc2cc(-c3c(Nc4cc[nH]n4)nc4cccnn34)nc(C)n2)cc1 [Cpd 33]
IC50: 660 nM

Cc1nc(Nc2cccnn2)cc(-c2c(Nc3ccn(C)n3)nc3cccnn23)n1 [Cpd 34, N-(1-methyl-1H-pyrazol-3-yl)-3-(2-methyl-6-(3-pyridazinylamino)-4-pyrimidinyl)imidazo[1,2-b]pyridazin-2-amine]
IC50: 750 nM

Cc1nc(Nc2ccc(N3CCN(C)CC3)nn2)cc(-c2c(Nc3cc[nH]n3)nc3cccnn23)n1 [Cpd 35, 3-(2-methyl-6-((6-(4-methyl-1-piperazinyl)-3-pyridazinyl)amino)-4-pyrimidinyl)-N-1H-pyrazol-3-ylimidazo[1,2-b]pyridazin-2-amine]
IC50: 110 nM

CCNC(=O)Nc1ccc(Nc2nc3ccccn3c2-c2cc(N)nc(C)n2)cc1 [Cpd 40, 1-(4-((3-(6-amino-2-methyl-4-pyrimidinyl)imidazo[1,2-a]pyridin-2-yl)amino)phenyl)-3-ethylurea]
IC50: 450 nM

Cc1nc(N)cc(-c2c(Nc3ccc4cc[nH]c4n3)nc3ccccn23)n1 [Cpd 41, 3-(6-amino-2-methyl-4-pyrimidinyl)-N-1H-pyrrolo[2,3-b]pyridin-6-ylimidazo[1,2-a]pyridin-2-amine]
IC50: 43200 nM

Cc1nc(Nc2ccc(N3CCOCC3)nn2)cc(-c2c(Nc3cc[nH]n3)nc3ccccn23)n1 [Cpd 49, 3-(2-methyl-6-((6-(4-morpholinyl)-3-pyridazinyl)amino)-4-pyrimidinyl)-N-1H-pyrazol-3-ylimidazo[1,2-a]pyridin-2-amine]
IC50: 130 nM

COCCOc1cnnc(Nc2cc(-c3c(Nc4ccc(NC(C)=O)cc4)nc4cccnn34)nc(C)n2)c1 [Cpd 53, N-(4-((3-(6-((5-(2-methoxyethoxy)-3-pyridazinyl)amino)-2-methyl-4-pyrimidinyl)imidazo[1,2-b]pyridazin-2-yl)amino)phenyl)acetamide]
IC50: 20 nM

Cc1nc(N)cc(-c2c(Nc3ccc(NC(=O)Nc4ccncc4)cc3)nc3ccccn23)n1 [Cpd 57, 1-(4-((3-(6-amino-2-methyl-4-pyrimidinyl)imidazo[1,2-a]pyridin-2-yl)amino)phenyl)-3-(4-pyridinyl)urea]
IC50: 10 nM

Cc1nc(Nc2cc(OCC(F)(F)F)cnn2)cc(-c2c(Nc3cc[nH]n3)nc3cccnn23)n1 [Cpd 60, 3-(2-methyl-6-((5-(2,2,2-trifluoroethoxy)-3-pyridazinyl)amino)-4-pyrimidinyl)-N-1H-pyrazol-3-ylimidazo[1,2-b]pyridazin-2-amine]
IC50: 39200 nM

CC(=O)Nc1cc(-c2c(Nc3ccn(C)n3)nc3c(F)cccn23)nc(C)n1 [Cpd 63, N-(6-(8-fluoro-2-((1-methyl-1H-pyrazol-3-yl)amino)imidazo[1,2-a]pyridin-3-yl)-2-methyl-4-pyrimidinyl)acetamide]
IC50: 2040 nM

Cc1nc(N)cc(-c2c(Nc3ccn(C)n3)nc3ccc(-c4cccc(S(C)(=O)=O)c4)cn23)n1 [Cpd 65, 3-(6-amino-2-methyl-4-pyrimidinyl)-N-(1-methyl-1H-pyrazol-3-yl)-6-(3-(methylsulfonyl)phenyl)imidazo[1,2-a]pyridin-2-amine]
IC50: 8690 nM

CC(=O)n1ccc(Nc2nc3cccnn3c2-c2cc(N)nc(C)n2)n1 [Cpd 67, N-(1-acetyl-1H-pyrazol-3-yl)-3-(6-amino-2-methyl-4-pyrimidinyl)imidazo[1,2-b]pyridazin-2-amine]
IC50: 750 nM

COCCOc1ccc2nc(Nc3cc[nH]n3)c(-c3cc(N)nc(C)n3)n2n1 [Cpd 69, 3-(6-amino-2-methyl-4-pyrimidinyl)-6-(2-methoxyethoxy)-N-1H-pyrazol-3-ylimidazo[1,2-b]pyridazin-2-amine]
IC50: 90 nM

CNc1cc(-c2c(Nc3cc[nH]n3)nc3ccc(N4CCOCC4)nn23)nc(C)n1 [Cpd 72, 3-(2-methyl-6-(methylamino)-4-pyrimidinyl)-6-(4-morpholinyl)-N-1H-pyrazol-3-ylimidazo[1,2-b]pyridazin-2-amine]
IC50: 110 nM

Cc1nc(N)cc(-c2c(Nc3cc[nH]n3)nc3ccc(OCCN4CCCC4)nn23)n1 [Cpd 73]
IC50: 800 nM

Cc1nc(NC(=O)N(C)C)cc(-c2c(Nc3cc[nH]n3)nc3cccnn23)n1 [Cpd 75, 1,1-dimethyl-3-(2-methyl-6-(2-(1H-pyrazol-3-ylamino)imidazo[1,2-b]pyridazin-3-yl)-4-pyrimidinyl)urea]
IC50: 42100 nM
